Test results reported in patent US20070141109A1, “Local Deliver of 17-Beta Estradiol for Preventing Vascular Intimal Hyperplasia and for Improving Vascular Endothelium Function after Vascular Injury” (priority 1999, published 2007).
“Also recorded” adds a separate entry of the source.

What was measured:
[1] = system: coronary arteries subjected to PTCA; assay: Response to intracoronary acetylcholine by quantitative coronary angiography after PTCA; type: in vivo, pigs
Protocol: The study protocol was approved by the Animal Care and Ethical Research Committee of the Montreal Heart Institute. Juvenile farm pigs weighing 20-25 kg (1 female, and 8 castrated males) were used. On the day of the experiment, animals received 650 mg of acetylsalicylic acid and 30 mg of nifedipine orally, were premedicated with 6 mg/kg of tiletamine hydrochloride and zolazepam hydrochloride, and were given 0.05 mg of atropine intramuscularly. Under general anesthesia (a mixture of 1-1.5% isoflurane and oxygen enriched air), the right femoral artery was cannulated percutaneously. An 8 Fr arterial sheath was introduced, and […] of lidocaine and 250 U/kg of heparin were administered intra-arterially. Additional heparin was administered during PTCA if needed, to maintain an activated coagulation time of >300 seconds.
An 8 Fr right Amplatz guiding catheter and right Judkins guiding catheter were used for cannulation of the left and right coronary arteries, respectively. A standard balloon catheter (corresponding to a balloon/artery ratio of 1.1-1.3:1) was advanced over a 0.014″ floppy guide wire, and 3 successive 30-second inflations at 10 atm pressure were made with a 30 second interval between each inflation. PTCA was performed on all 3 coronary […] of each animal. For local delivery, the InfusaSleeve catheter (LocalMed Inc.) was used, which permits safe drug delivery with negligible additional injury (7). After balloon dilatation, each coronary artery of an animal was randomized to receive either 600:g of 17-beta estradiol (in 5 ml), vehicle alone (5 ml), or PTCA only. The vehicle 2-hydroxypropyl-beta-cyclodextrin (HPCD), and 17-beta estradiol were obtained from Sigma Chem. Co. For local delivery with the InfusaSleeve catheter, a proximal driving pressure of 10 atm and support balloon pressure of 6 atm were utilized.
All 9 animals underwent cardiac catheterization at the end of 4 weeks. After a baseline coronary angiogram, selective cannulation of the proximal portion of a coronary artery was performed with a single lumen balloon catheter (TotalCross, Schneider) for the administration of vasoactive agents. Acetylcholine (Ach) in increasing concentrations of 10^−7 M, 10^−6 M, 10^−5 M, 10^−4 M, was successively infused through the lumen port of the catheter. Each dose was administered for a duration of 3 minutes at a constant rate of 1 ml/min using an infusion pump. Coronary angiography was performed at the end of each dose. After infusion of the highest concentration of Ach (10^−4 M and angiography, 100:g of nitroglycerin was administered via the lumen port of the catheter, and a coronary angiogram performed. The same protocol was repeated for the other 2 coronary arteries. Heart rate, blood pressure, and ECG were monitored continuously throughout the experiment.
Coronary angiography was performed with a single plane imaging system (Electromed Intl). […] Care was taken to maintain the same angulation during angiography of a segment throughout the procedure. Ionic contrast (MD-76, Mallinckrodt Medical Inc) was used throughout the experiment. Images were captured at a frame speed of 30 frames/sec, and stored digitally. A segment of contrast-filled guiding catheter was included in every frame, for the purpose of calibration. Calibration was performed using the known diameter of the contrast-filled guiding catheter as the reference segment, to avoid error due to magnification. […]

[2] = system: human umbilical vein endothelial cells; conditions: HUVEC exposed to tumor necrosis factor; cited from earlier work
[3] = system: endothelium of injured coronary arteries; assay: Reendothelialization by lectin Dolichos biflorus agglutinin immunohistochemistry; type: in vivo, pigs
Protocol: (§1) The animals were euthanized at 4 weeks. Under general anesthesia as described above, exsanguination was performed with replacement by 1 l of 0.9% NaCl solution. The heart was perfusion-fixed in vivo with 2 l of 10% buffered formalin at 200 mm Hg pressure. The heart was then removed, and the coronary arteries were harvested immediately. From the injured segment (identified in relation to side branches), serial sections of 3-5 mm were made, and stored in 10% buffered formalin solution. The sections were then treated with incremental concentrations of alcohol followed by treatment with xylene and paraffin. Slices of 6:m thickness were prepared, and stained with Verhoeff's stain for assessment of tissue response to injury. […] The % of reendothelialization and, the % of endothelial nitric oxide synthase (eNOS) expression were calculated as follows: (the total length of the luminal surface staining positively/the perimeter of the lumen)×100, respectively. Analysis was performed by an independent examiner with no knowledge of the treatment groups to which the sections belonged. […]

[4] = system: coronary arteries subjected to PTCA; assay: Morphometric analysis of neointima hyperplasia after PTCA and local delivery; type: in vivo, pigs
Protocol: Eighteen juvenile farm pigs (9 female, and 9 castrated male) weighing 20-25 kg were studied. The study was approved by, and conducted in accordance with, the guidelines of the Animal Care and Ethical Research Committee of the Montreal Heart Institute. Before the procedure, animals were given 650 mg of acetylsalicylic acid and 30 mg of nifedipine orally, premedicated with intramuscular injection of 6 mg/kg of a mixture of tiletamine hydrochloride and zolazepam hydrochloride, and given 0.05 mg of atropine. The invasive procedure was performed under general anesthesia with a mixture of isoflurane (1 to 1.5%) and oxygen enriched air. The right femoral artery was cannulated percutaneously, and an 8 Fr arterial sheath was introduced. After arterial access had been obtained, 100 mg of lidocaine and 250 U/kg of heparin were administered intra-arterially via the sheath. Activated coagulation time was maintained at >300 seconds throughout the procedure. […] Standard PTCA equipment was used. An 8 Fr right Amplatz guiding catheter and right Judkins guiding catheter were used for cannulation of the left and right coronary arteries, respectively. PTCA was performed with a balloon size chosen to correspond to a balloon/artery ratio of 1.1-1.3. Three 30-second inflations at 10 atm pressure were performed with a 30-second interval between each inflation. Inflations were performed adjacent to major side branches to facilitate identification during harvesting, taking precaution not to include any side branch in the intended PTCA site. The left anterior descending, left circumflex, and right coronary arteries of each animal were subjected to PTCA. After PTCA, each coronary artery of an animal was randomized to receive either 600 μg of 17-beta estradiol locally, or vehicle alone locally, or PTCA only. The chemicals 17-beta estradiol and its vehicle 2-hydroxypropyl-beta-cyclodextrin (HPCD) were purchased from Sigma Chemical Co. The InfusaSleeve catheter (Local Med, Inc.) was used for local delivery.^12 Five ml of the designated substance was delivered at a driving pressure of 10 atm and support balloon pressure of 6 atm. Of the 18 animals, 2 died a few days after PTCA, and were excluded; thus, 16 animals were analyzed. Twelve animals were euthanized at 28 days, and 4 at 7 days. After premedication and anesthesia, the right internal jugular vein and common carotid artery were cannulated. Following cross-clamping of the descending thoracic aorta exposed via a left lateral thoracotomy, exsanguination was performed, with simultaneous administration of 1 l of 0.9% NaCl solution. The heart was perfusion-fixed in vivo with 2 l of 10% buffered formalin at 200 mm Hg pressure, removed from the animal, and placed in 10% buffered formalin solution. Coronary arteries were then dissected free from surrounding tissues. The site of PTCA was identified in relation to adjacent side branches, which served as landmarks. The injured segment was harvested with a 1 cm normal segment proximal and distal to the injured site. Serial sections 3 to 5 mm long were made from the harvested segment, with a minimum of at least 3 sections (maximum 5) from each PTCA site. Sections were stored in buffered 10% formalin and subjected to dehydration with increasing concentrations of alcohol, followed by treatment with xylene and paraffin. Each section was then cut to slices of 6 μm thickness with a microtome (Olympus cut 4060 E), and stained with Verhoeff's stain for morphometric analysis. Measurements were made with a video microscope (Leitz Diaplan, equipped with a Sony DXC 970 MD color video camera) linked to a 486 personal computer and customized software. A minimum of 3 sections for each injured segment were analyzed and results averaged. Analyses were made by a single observer unaware of the treatment group to which each segment had bee allocated. Randomly selected sections were viewed by a second observer (also blinded to protocol) independently; inter-observer variability was <5%. […]

[5] = system: proliferating SMC (PCNA-positive); assay: PCNA immunohistochemistry of the proliferative response to injury; type: in vivo, pigs; conditions: 7 days after PTCA
Protocol: Following slicing with a microtome and blocking of non-specific antibodies, the sections were treated with mouse anti-proliferating cell nuclear antigen (PCNA) antibodies and diluted biotinylated goat anti-mouse antibodies. They were then incubated with avidin-biotin (Elite ABC Kit, Vector Laboratories), and developed with 3,3′-diaminobenzidine (Vector Laboratories). They were finally counter-stained with hematoxylin. Porcine liver cells were used as a positive control. For each section, a 6 μm slice counter-stained with hematoxylin without treatment with the primary antibody (mouse anti-PCNA) served as a negative control. The proliferative response to injury was studied by immunohistochemical analysis of samples from animals euthanized at 7 days. The % proliferating SMC was obtained by dividing the number of PCNA-positive SMC by the total number of SMC in each field; separate measurements were made for neointima and media layers. The proliferating cells were identified as SMC by positive staining of parallel sections with a smooth muscle actin antibody. To standardize comparison among treatment groups, measurements were obtained at 4 fixed locations separated by 90° sites for each section, and the results averaged.

[6] = system: endothelial nitric oxide synthase (eNOS); assay: eNOS expression by immunohistochemistry; type: in vivo, pigs
Protocol: as §1

[7] = rats, estimated; cited from earlier work
[8] = 600 μg locally after PTCA, 28 days, mean ± SD

C[C@]12CC[C@@H]3c4ccc(O)cc4CC[C@H]3[C@@H]1CC[C@@H]2O [17-beta estradiol]
Diameter-basal (basal coronary artery diameter) ([1]; 4 weeks after PTCA and 600 μg locally): 2.53±0.6 mm | Diameter-post Ach ([1]; Ach 10^−4M, 4 weeks): 2.28±0.61 mm | coronary artery diameter after nitroglycerin ([1]; after 10^−4 M Ach then nitroglycerin, 4 weeks): 2.61±0.48 mm | vasoconstrictive response to Ach ([1]; any Ach concentration used, in words): no significant vasoconstrictive response | changes in heart rate, ECG, or blood pressure ([1]; during the local delivery or intracoronary infusion of vasoactive agents): No changes | decrease in apoptosis [2]: 50% | Reendothelialization ([3]; 4 weeks after PTCA): 90.6±5.5% | reendothelialization compared to PTCA only and vehicle ([3]; FIG. 4, in words): reendothelialization to a greater degree | % neointima [4, 8]: 12.16 ± 8.89% | % stenosis [4, 8]: 15.67 ± 11.13% | EELref/EELinj (vascular remodeling) [4, 8]: 1.01±0.16 | Neointima area [4, 8]: 0.4 ± 0.3 mm^2 | Neointima/Media area [4, 8]: 0.59 ± 0.48 | Restenotic index [4, 8]: 1.3 ± 0.5 | decrease of neointima formation ([4]; compared to PTCA only, 28 days): 54.6% | decrease of neointima formation ([4]; compared to vehicle alone, 28 days): 64.9% | performance of lower doses ([4]; doses of 200 and 400 μg, local): as performing as the dose of 600 μg | % neointima ([4]; female pigs): 8.29 ± 3.72% | % stenosis ([4]; female pigs): 11.09 ± 5.16% | Neointima area ([4]; female pigs): 0.25 ± 0.15 mm^2 | Neointima/Media area ([4]; female pigs): 0.32 ± 0.16 | Restenotic index ([4]; female pigs, 5 segments): 1.37 ± 0.45 | neointima hyperplasia compared to PTCA only or vehicle alone ([4]; local delivery, 28 days, in words): markedly less neointima hyperplasia; also recorded: significantly less neointima hyperplasia | % neointima ([4]; male pigs): 14.93 ± 10.68% | % stenosis ([4]; male pigs): 18.93 ± 13.39% | Neointima area ([4]; male pigs): 0.51 ± 0.34 mm^2 | Neointima/Media area ([4]; male pigs): 0.78 ± 0.55 | Restenotic index ([4]; male pigs, 7 segments): 1.2 ± 0.59 | % PCNA-positive SMC in the media [5]: 0.4±0.3% | % of PCNA-positive SMC in the neointima [5]: 0.43±0.52% | Endothelial nitric oxide synthase expression ([6]; 4 weeks after PTCA): 35.6±11.8% | expression of eNOS compared to PTCA only and vehicle ([6]; FIG. 5, in words): greater expression of eNOS

CC(O)COC[C@H]1O[C@@H]2O[C@H]3[C@H](O)[C@@H](O)[C@@H](O[C@H]4[C@H](O)[C@@H](O)[C@@H](O[C@H]5[C@H](O)[C@@H](O)[C@@H](O[C@H]6[C@H](O)[C@@H](O)[C@@H](O[C@H]7[C@H](O)[C@@H](O)[C@@H](O[C@H]8[C@H](O)[C@@H](O)[C@@H](O[C@H]1[C@H](O)[C@H]2O)O[C@@H]8COCC(C)O)O[C@@H]7COCC(C)O)O[C@@H]6COCC(C)O)O[C@@H]5COCC(C)O)O[C@@H]4COCC(C)O)O[C@@H]3COCC(C)O (stereo partly drawn) [HPCD, 2-hydroxypropyl-beta-cyclodextrin]
toxic dose (nephrotoxicity) [7]: 200 mg/kg
